# Test results from patent US9505725B2, “Crystalline and mesomorphous forms of an AKT inhibiting pyrimidinyl-cyclopentane compound, compositions and methods thereof” (priority 2012, dated 2016).
# Read-outs that look alike come from different tables or passages of the source.
# How the values were obtained:
# [1] = Solubility in solvents, antisolvents and liquid fill solvents; assay type: physicochemical; details: organic solvent or mixture
# Description: In one example, antisolvents include pentane, hexane, cyclohexane, heptane, ethyl acetate, iso-propyl acetate, methyl t-butyl ether (MTBE) and methyl iso-butyl ketone.
# In one example, solvents include water, alcohols such as methanol, ethanol, isopropanol, 2-butanol, t-butanol and 2-methoxy ethanol, polar ethers such as tetrahydrofuran and 2-methyltetrahydrofuran, toluene, chloroform, dichloromethane, 1,2-dichloroethane and acetone.
# [2] = Critical micelle concentration in propylene glycol caprylate (Capryol 90); assay type: physicochemical; details: in propylene glycol caprylate (e.g., Capryol 90)
# Procedure: Such high doses are generally unachievable with active pharmaceutical ingredients in the lipid like liquid fill solvent systems. […] The critical micelle concentration for GDC-0068 in propylene glycol caprylate (e.g., Capryol 90™) was determined to be 0.945 g/g.
# [3] = forms isolated in Example 14 of U.S. Pat. No. 8,063,050; cited from earlier work
# [4] = Hygroscopicity / water sorption analysis; assay type: physicochemical; details: continuous water sorption profile at 25° C. from 0-90% RH
# [5] = Variable temperature XRPD (thermal stability of the solid form); assay type: physicochemical; details: heating, XRPD as a function of temperature
# Procedure: Heating the product of Example 1 leads to loss in structure (diffracted peaks start to disappear in the 100-160° C. range) and the solid-state form becomes amorphous.
# At temperatures ≧80° C., there is substantial loss of crystallinity. In both samples, they appear to be X-ray amorphous at 90° C. and above (due to melting of the lattice solvent and dissolution of the solid phase in it as confirmed by hot stage microscopy).
# [6] = XRPD after exposure to water vapor (relative humidity); assay type: physicochemical; details: room temperature, different RH conditions, 5-7 days
smiles,measurement,setting,value
"CC(C)NC[C@@H](C(=O)N1CCN(c2ncnc3c2[C@H](C)C[C@H]3O)CC1)c1ccc(Cl)cc1.Cl [compound of formula I, (S)-2-(4-chlorophenyl)-1-(4-((5R,7R)-7-hydroxy-5-methyl-6,7-dihydro-5H-cyclopenta[d]pyrimidin-4-yl)piperazin-1-yl)-3-(isopropylamino)propan-1-one monohydrochloride]",solubility,"[1]; antisolvents (organic liquids), pentane, hexane, cyclohexane, heptane, ethyl acetate, iso-propyl acetate, MTBE, methyl iso-butyl ketone, read-out: solubility in antisolvents",< 20 mg/mL
same,solubility,"[1]; solvents (water and organic liquids), water, methanol, ethanol, isopropanol, 2-butanol, t-butanol, 2-methoxy ethanol, THF, 2-methyltetrahydrofuran, toluene, chloroform, dichloromethane, 1,2-dichloroethane, acetone, read-out: solubility in solvents",> 20 mg/mL
"CC(C)NC[C@@H](C(=O)N1CCN(c2ncnc3c2[C@H](C)C[C@H]3O)CC1)c1ccc(Cl)cc1 [GDC-0068, (S)-2-(4-chlorophenyl)-1-(4-((5R,7R)-7-hydroxy-5-methyl-6,7-dihydro-5H-cyclopenta[d]pyrimidin-4-yl)piperazin-1-yl)-3-(isopropylamino)propan-1-one]",critical micelle concentration,[2],0.945 g/g
same,hygroscopicity,[3],hygroscopic
"CC(C)NC[C@@H](C(=O)N1CCN(c2ncnc3c2[C@H](C)C[C@H]3O)CC1)c1ccc(Cl)cc1.Cl [Example 1, (S)-2-(4-chlorophenyl)-1-(4-((5R,7R)-7-hydroxy-5-methyl-6,7-dihydro-5H-cyclopenta[d]pyrimidin-4-yl)piperazin-1-yl)-3-(isopropylamino)propan-1-one monohydrochloride]",deliquescence point,[4],~75 % RH
same,"temperature range in which diffracted peaks start to disappear (loss in structure, becomes amorphous)",[5],100-160 °C
same,effect of water vapor exposure on crystallinity,[6],loses crystallinity
